“Also recorded” adds a separate entry of the source. Ends that are not written are not given here.
How the values were obtained:
[1] = tested on: syngeneic BM mononuclear cells; assay: Murine BM transplant with BM mononuclear cells exposed ex vivo to LL-37; assay type: in vivo; settings: BM exposed ex vivo 30 minutes; lethally irradiated recipients
Protocol: Leukophoresis products enriched in activated granulocytes release hBD-2 and LL-37. The question was whether this might explain why mobilized peripheral blood hematopoietic progenitors engrafts substantially faster relative to marrow. We therefore performed studies in a murine BM transplant model where syngeneic BM mononuclear cells were exposed ex vivo to LL-37 for 30 minutes and subsequently transplanted into lethally irradiated recipients. […] On the basis of these findings, this represents a second strategy for reducing the period of neutropenia in recipients of UCB

[2] = tested on: murine BMNCs and CFU-GM progenitor cells; assay: Migration of murine BMNCs and CFU-GM progenitors to SDF-1 gradient after cationic peptide priming; assay type: cell-based; settings: for migration of CFU-GM progenitor cells in response to SDF-1 gradient / migration of murine BMNCs in response to SDF-1 gradient: SDF-1 50 ng/ml; for chemotactic activity alone: without SDF-1
Protocol: FIG. 8A-B—A) BM mononuclear cell and B) CFU-GM migration in response to an SDF-1 gradient after priming with LL-37 or hBD-2. Values are fold increases of migrated cells compared to media alone.
FIG. 17A-B—Cationic peptides released from granulocytes enhance responsiveness of HSPCs to SDF-1 gradient. […] Values are the fold increases of migrated cells compared to media alone. M, media alone; SDF-1 (L), 50 ng/ml; SDF-1 (H), 300 ng/ml; C3a, 1 μg/ml. * P<0.05 as compared with SDF-1 (50 ng/ml) alone. The data shown represent the combine results from four independent experiments carried out in triplicate per group (n=12).
We also evaluated the effect of complement fragment 5a (C5a). […] After leaving the BM, granulocytes undergo degranulation in response to plasma C5a and secrete cationic peptides, such as cathelicidin (LL-37) and β-defensin-2 (hBD-2). […] It was hypothesized that this response may be affected by the distribution of membrane lipids by cationic peptides. […] Direct confocal analysis of CXCR4 and lipid raft colocalization in the presence or absence of cationic peptides confirmed these findings.

[3] = tested on: CXCR4; assay: Western blot of CXCR4 in lipid raft membrane fractions, cationic peptides (Nalm-6); assay type: cell-based, human
Protocol: (§1) FIG. 18A-B—Priming effect of cationic peptides is dependent on enhanced incorporation of CXCR4 into lipid rafts. (A) Western blot analysis of the localization of CXCR4 in various fractions of cell membranes. Membranes enriched in lipid rafts (fractions 3-5) and depleted of lipid rafts (fractions 9-11). Human pre-B cell line, Nalm-6, was stimulated with […] β2-defensin (hBD-2) (250 ng/ml) or was not stimulated (control). CXCR4 was detected in these membrane fractions by Western blot along with Lyn, a marker of lipid rafts. Experiments were performed three times with similar results. (B) LL-37-induced enhancement of THP-1 cell migration to SDF-1 gradient was inhibited by 1 h pretreatment with MβCD (1.0 or 2.5 mM). * P<0.05 as compared with migration of control cells in the absence of LL-37 (2.5 μg/ml). Lipid raft formation was analyzed. Shown are representative of three independent experiment carried out in triplicate per group. The data shown represent the combine results from four independent experiments carried out in triplicate per group (n=12).
(§2) Since enhanced responsiveness of HSPCs to SDF-1 gradient in the presence of C3a (priming effect) is mediated by incorporation of CXCR4 into membrane lipid rafts, we tested if similar phenomenon is responsible for LL-37 or β2D-dependent priming. […]

[4] = tested on: THP-1 cell; assay: THP-1 cell migration to SDF-1 gradient with LL-37 and MβCD pretreatment; assay type: cell-based
Protocol: as §1, §2

[5] = tested on: CD34+ cells; assay: Transwell chemotaxis of CD34+ cells to an SDF-1 gradient (priming); assay type: cell-based, human; settings: pre-incubated 1 hr with MβCD (2.5 mM); low dose of SDF-1
Protocol: FIG. 11A-B—Effect of SLP and its components on chemotaxis of CD34^+ cells. Panel A: Chemotaxis of BM CD34^+ cells towards medium alone (control), SDF-1 low (10 ng/mL) alone, SLP (combined SLP from three patients), SDF-1 low+SLP, and SDF-1 high (300 ng/mL). Data are pooled from quadruplicate samples from three independent experiments. *p<0.00001. Panel B: Chemotaxis of UCB CD34^+ cells to medium alone (control), SDF-1 low (10 ng/mL) alone and SDF-1 low (10 ng/mL)+uPAR (1 μg/mL) or +ICAM (1 μg/mL) or +VCAM (1 μg/mL) or +FN (2 μg/mL), or +FG (4 μg/mL) or +C3a (1 μg/mL). Data are pooled from quadruplicate samples from three independent experiments. * p<0.00001.
Chemotaxis of CD34^+ cells to medium alone (control), C3a (1 μg/ml), C3adesArg (1 μg/ml), SDF-1 low (10 ng/mL) alone, and SDF-1 low (10 ng/mL)+C3a low (0.1 μg/ml) or SDF-1 low (10 ng/mL)+C3a (1 μg/ml) or SDF-1 low (10 ng/mL)+C3adesArg (1 μg/ml). Data are pooled from quadruplicate samples from three independent experiments.* p<0.00001.
FIG. 13A-B—Chemotaxis of cells to an SDF-1 gradient is lipid raft-dependent. Panel A: Chemotaxis of CD34^+ cells to medium alone (control), SDF-1 (300 ng/mL) and SDF-1 (300 ng/mL) after preincubation for 1 hr with Amphotericin (10 μg/mL) or Nystatin (50 μg/mL). Cells were collected after chemotaxis from the lower chambers and plated in a clonogenic assay. The number of CFU-GM and BFU-E colonies formed by harvested cells is shown as a percentage of control values. Data are pooled from quadruplicate samples from three independent experiments. *p<0.0001. Panel B: Chemotaxis of CD34^+ cells towards medium alone (control), SDF-1 low (10 ng/mL) alone, or SDF-1 low with cells exposed to C3a (1 μg/mL). Cells pretreated before chemotaxis for 1 hr with MβCD (2.5 mM) are shown as gray bars. Data are pooled from quadruplicate samples from three independent experiments. * p<0.00001.
HSPCs from the mPB engraft faster compared to HSPCs aspirated from BM. To test the hypothesis that mPB-derived HSPCs are primed in their responses to SDF-1 by molecules present in SLP, we pooled together SLP from three patients and exposed BM or UCB CD34^+ cells to the SLP during chemotaxis to a low (10 ng/mL) dose of SDF-1.
To address this issue further, the formation of rafts in the cells was perturbed by MβCD, which depletes cholesterol from the cell membrane. The CD34^+ cells were pre-incubated with MβCD for 1 hr. Chemotaxis to a low dose of SDF-1 in the presence of C3a (in the upper chambers) was evaluated.

[6] = tested on: DNA methyltransferase; assay: miR-184 expression by RT-PCR in adult CD4 T-cells treated with 5-aza deoxycytidine; assay type: cell-based, human; settings: 10 uM for 24 h
Protocol: FIG. 29A-B—A.) Schematic of the genomic region surrounding hsa-miR-184. Dots denote CpG sites and a putative CpG island (defined by observed/expected CpG incidence>[…], GC>50%, length>100 bp) located closely upstream. B) Adult CD4 T-cells were cultured with and without the DNA methyltransferase blocker 5-aza deoxycytidine (5-aza) for 24 h, a portion stimulation for 6 h, then assayed for miR-184 expression by RT-PCR.
However, expression of many miRNA species is known to be mediated by epigenetic events such as DNA methylation. […] Indeed we observed a small predicted (obs/exp>0.6, GC>50%) CpG island upstream of the miR-184 genomic site as well as several additional downstream CpG sites (FIG. 29 A). Inhibition of […] gene silencing is accomplished by treating with 5-aza-deoxycytidine, which is incorporated into replicating DNA and blocks DNA methyltransferase enzymes.

| Compound | accelerated recovery of platelets and neutrophils compared to unprimed control cells [1] | priming effect compared with that described for C3a [2] | responsiveness of hematopoietic progenitors to plasma SDF-1 (priming effect) [2] | migration of CFU-GM progenitor cells in response to SDF-1 gradient [2] | migration of murine BMNCs in response to SDF-1 gradient [2] | chemotactic activity alone [2] | incorporation of CXCR4 into membrane lipid rafts [3] | migration of CFU-GM progenitor cells in response to SDF-1 gradient ([2]; listed as β2D) | migration of murine BMNCs in response to SDF-1 gradient ([2]; listed as β2D) | effect on the priming effects of LL-37 and hBD-2 ([2]; inhibitor of cell membrane raft formation) | LL-37-enhanced migration/responsiveness to SDF-1 gradient ([4]; 1 h pretreatment with MβCD (1.0 or 2.5 mM), LL-37 2.5 μg/ml) | fMLP mediated migration ([4]; control experiments, MβCD pretreatment) | inhibition of the priming effect of C3a [5] | miR-184 expression [6] | miR-184 expression increase when cells were stimulated in vitro ([6]; stimulation 6 h) |
| --- | --- | --- | --- | --- | --- | --- | --- | --- | --- | --- | --- | --- | --- | --- | --- |
| LL-37: active fragment of cathelicidin; recombinant cationic peptide released from granulocytes (LLGDFFRKSKEKIGKEFKRIVQRIKDFLRNLVPRTES; Antibacterial peptide LL-37; UniProt P49913 134-170, looked up) | 3 to 5 days | several times higher | highly enhanced | enhance/prime migration; also recorded: strongly enhanced | enhance/prime migration; also recorded: strongly enhanced | do not show chemotactic activity | increase incorporation of CXCR4 | – | – | – | – | – | – | – | – |
| hBD-2: β-defensin-2; recombinant cationic peptide released from granulocytes (GIGDPVTCLKSGAICHPVFCPRRYKQIGTCGLPGTKCCKKP; ends and bridges not checked; cysteine pairing not given here; UniProt O15263 24-64, looked up) | – | several times higher | highly enhanced | strongly enhanced | strongly enhanced | do not show chemotactic activity | increase incorporation of CXCR4 | enhance/prime migration | enhance/prime migration | – | – | – | – | – | – |
| methyl-β-cyclodextrin [MβCD, reference compound] | – | – | – | – | – | – | – | – | – | inhibit the priming effects | inhibited | did not affect | ~60% | – | – |
| Nc1ncn([C@H]2C[C@H](O)[C@@H](CO)O2)c(=O)n1 [5-aza deoxycytidine, 5-aza-deoxycytidine] | – | – | – | – | – | – | – | – | – | – | – | – | – | significant increase | abrogated |

Source: US9233127B2, “Compositions and methods for CXCR4 signaling and umbilical cord blood stem cell engraftment” (University of Virginia Patent Foundation, priority 2012, dated 2016)
